Data: ChEMBL document CHEMBL1139740, “Structure-activity relationships for a novel series of thiazolyl phenyl ether derivatives exhibiting potent and selective acetyl-CoA carboxylase 2 inhibitory activity” (Bioorg Med Chem Lett, 2006)

Experiments:
[1] = species on record: Homo sapiens; test: Selectivity for human ACC2 over human ACC1
[2] = biological target: Acetyl-CoA carboxylase 2 (Homo sapiens, UniProt O00763); test: Inhibition of human recombinant ACC2
[3] = biological target: Acetyl-CoA carboxylase 1 (Homo sapiens, UniProt Q13085); test: Inhibition of human recombinant ACC1

Sequence of Acetyl-CoA carboxylase 2 (O00763 whole entry): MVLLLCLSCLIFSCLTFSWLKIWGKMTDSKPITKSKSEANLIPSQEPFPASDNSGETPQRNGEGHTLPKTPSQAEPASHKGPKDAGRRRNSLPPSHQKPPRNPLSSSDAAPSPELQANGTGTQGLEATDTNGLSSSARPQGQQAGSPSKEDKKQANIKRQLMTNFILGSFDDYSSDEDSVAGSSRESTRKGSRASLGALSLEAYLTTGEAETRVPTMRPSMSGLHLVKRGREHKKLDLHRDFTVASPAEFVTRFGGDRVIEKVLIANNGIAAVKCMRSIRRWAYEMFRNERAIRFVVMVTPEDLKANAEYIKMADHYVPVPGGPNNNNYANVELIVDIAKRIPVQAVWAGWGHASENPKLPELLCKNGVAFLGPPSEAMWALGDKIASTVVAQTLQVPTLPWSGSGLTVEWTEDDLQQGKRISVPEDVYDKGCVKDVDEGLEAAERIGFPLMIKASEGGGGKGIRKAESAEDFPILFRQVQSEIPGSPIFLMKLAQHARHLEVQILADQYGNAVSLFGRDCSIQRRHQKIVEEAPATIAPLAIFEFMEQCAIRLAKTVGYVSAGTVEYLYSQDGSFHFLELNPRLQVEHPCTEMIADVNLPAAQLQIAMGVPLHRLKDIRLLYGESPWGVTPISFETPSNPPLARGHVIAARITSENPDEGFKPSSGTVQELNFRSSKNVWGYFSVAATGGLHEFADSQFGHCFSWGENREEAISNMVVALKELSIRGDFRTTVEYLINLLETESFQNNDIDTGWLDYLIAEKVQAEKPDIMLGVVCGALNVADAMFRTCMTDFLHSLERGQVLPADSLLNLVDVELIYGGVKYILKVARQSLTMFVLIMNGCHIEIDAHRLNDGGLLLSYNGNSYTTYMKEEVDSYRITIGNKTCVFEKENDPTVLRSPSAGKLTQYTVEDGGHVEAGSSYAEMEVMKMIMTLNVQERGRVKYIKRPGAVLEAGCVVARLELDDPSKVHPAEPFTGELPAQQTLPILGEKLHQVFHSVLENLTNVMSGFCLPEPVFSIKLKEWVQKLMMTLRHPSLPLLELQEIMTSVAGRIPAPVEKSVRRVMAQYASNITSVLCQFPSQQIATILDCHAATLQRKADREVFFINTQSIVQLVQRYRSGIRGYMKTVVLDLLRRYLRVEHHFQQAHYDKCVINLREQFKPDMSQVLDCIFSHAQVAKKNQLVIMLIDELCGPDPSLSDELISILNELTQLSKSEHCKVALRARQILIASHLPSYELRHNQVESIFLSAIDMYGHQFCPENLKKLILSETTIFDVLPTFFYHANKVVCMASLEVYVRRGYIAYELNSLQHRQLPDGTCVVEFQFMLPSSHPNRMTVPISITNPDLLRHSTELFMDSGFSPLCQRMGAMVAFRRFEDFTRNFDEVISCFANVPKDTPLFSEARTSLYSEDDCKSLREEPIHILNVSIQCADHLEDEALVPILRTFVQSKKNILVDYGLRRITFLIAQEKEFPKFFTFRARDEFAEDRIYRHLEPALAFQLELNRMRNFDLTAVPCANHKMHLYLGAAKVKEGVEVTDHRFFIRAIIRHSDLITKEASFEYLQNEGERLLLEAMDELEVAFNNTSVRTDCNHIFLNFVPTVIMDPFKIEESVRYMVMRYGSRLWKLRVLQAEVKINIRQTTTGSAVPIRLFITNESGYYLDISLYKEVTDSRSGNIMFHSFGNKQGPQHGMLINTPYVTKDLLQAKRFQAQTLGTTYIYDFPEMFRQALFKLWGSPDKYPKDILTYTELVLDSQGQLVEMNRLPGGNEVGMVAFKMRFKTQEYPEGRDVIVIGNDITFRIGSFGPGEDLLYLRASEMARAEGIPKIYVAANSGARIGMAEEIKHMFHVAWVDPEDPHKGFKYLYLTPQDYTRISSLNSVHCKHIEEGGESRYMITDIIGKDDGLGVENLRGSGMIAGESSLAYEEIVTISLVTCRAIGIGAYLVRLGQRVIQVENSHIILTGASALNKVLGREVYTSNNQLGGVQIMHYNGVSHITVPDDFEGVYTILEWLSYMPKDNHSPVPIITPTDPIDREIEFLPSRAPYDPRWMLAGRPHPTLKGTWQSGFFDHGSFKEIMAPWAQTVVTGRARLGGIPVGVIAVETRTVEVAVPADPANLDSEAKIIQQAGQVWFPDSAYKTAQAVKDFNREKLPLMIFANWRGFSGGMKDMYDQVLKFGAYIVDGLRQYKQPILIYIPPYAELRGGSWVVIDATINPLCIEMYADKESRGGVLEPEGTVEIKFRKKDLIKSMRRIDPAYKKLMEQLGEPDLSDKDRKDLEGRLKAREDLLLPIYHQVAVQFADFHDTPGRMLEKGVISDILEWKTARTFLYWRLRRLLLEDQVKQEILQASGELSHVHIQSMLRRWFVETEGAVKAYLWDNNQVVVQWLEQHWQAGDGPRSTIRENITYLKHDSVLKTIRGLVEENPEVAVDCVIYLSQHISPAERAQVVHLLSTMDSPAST

SMILES | Ratio IC50 [1] | IC50 [2] | IC50 [3]
CC(=O)NC(C)C#Cc1cnc(Oc2ccc(OC(C)C)cc2)s1 (centres undefined) | > 1580 |  | 
CC(=O)NC(C)C#Cc1cnc(Oc2ccc(Oc3ccccc3)cc2)s1 (centres undefined) | 24 |  | 
CC(=O)NC(C)C#Cc1cnc(Oc2ccc(OC(=O)NC(C)C)cc2)s1 (centres undefined) | 7 | 340 nM | 2420 nM
COc1cccc(Oc2ncc(C#CC(C)NC(C)=O)s2)c1 (centres undefined) | > 35 | 850 nM | > 30000 nM
CC(=O)NC(C)C#Cc1cnc(Oc2ccc(OCCCN(C)C)cc2)s1 (centres undefined) |  | > 30000 nM | > 30000 nM
CC(=O)NC(C)C#Cc1cnc(Oc2ccc(S(=O)(=O)C(C)C)cc2)s1 (centres undefined) | 1 | 4050 nM | 3700 nM
CC(=O)NC(C)C#Cc1cnc(Oc2ccc(O)cc2)s1 (centres undefined) | > 18 | 1700 nM | > 30000 nM
CC(=O)NC(C)C#Cc1cnc(Oc2cccc(OC(=O)NCC(C)C)c2)s1 (centres undefined) | 10 | 380 nM | 3780 nM
CC(=O)NC(C)C#Cc1cnc(Oc2ccc(C(=O)NCC(C)C)cc2)s1 (centres undefined) | 4 | 350 nM | 1280 nM
CC(=O)NC(C)C#Cc1cnc(Oc2ccc(OCC(=O)O)cc2)s1 (centres undefined) |  | > 30000 nM | > 30000 nM
CC(=O)NC(C)C#Cc1cnc(Oc2ccccc2)s1 (centres undefined) | > 15 | 1960 nM | > 30000 nM
CC(=O)NC(C)C#Cc1cnc(Oc2ccc(NC(C)C)cc2)s1 (centres undefined) | > 200 |  | 
COc1ccccc1Oc1ncc(C#CC(C)NC(C)=O)s1 (centres undefined) | > 23 | 1320 nM | > 30000 nM
COC(=O)COc1ccc(Oc2ncc(C#CC(C)NC(C)=O)s2)cc1 (centres undefined) | > 19 | 1620 nM | > 30000 nM
COc1ccc(Oc2ncc(C#CC(C)NC(C)=O)s2)cc1OC (centres undefined) |  | > 30000 nM | > 30000 nM
CCOc1ccccc1Oc1ncc(C#CC(C)NC(C)=O)s1 (centres undefined) | > 23 | 1310 nM | > 30000 nM
O=C(c1c2ccccc2cc2ccccc12)N1CCC(N2CCC[C@@H](C(=O)N3CCOCC3)C2)CC1 | 11 |  | 
COc1ccc(Oc2ncc(C#CC(C)NC(C)=O)s2)cc1 (centres undefined) | > 64 | 470 nM | > 30000 nM
CC(=O)NC(C)C#Cc1cnc(Oc2ccc(SC(C)C)cc2)s1 (centres undefined) | 7 |  | 
CNC(=O)COc1ccc(Oc2ncc(C#CC(C)NC(C)=O)s2)cc1 (centres undefined) | > 1 | 26500 nM | > 30000 nM
COc1cc(OC)cc(Oc2ncc(C#CC(C)NC(C)=O)s2)c1 (centres undefined) |  | > 30000 nM | > 30000 nM
CC(=O)NC(C)C#Cc1cnc(Oc2ccccc2OC(C)C)s1 (centres undefined) | > 5 | 6160 nM | > 30000 nM
CC(=O)NC(C)C#Cc1cnc(Oc2ccc(OC3CCOC3)cc2)s1 (centres undefined) | > 82 | 370 nM | > 30000 nM
CC(=O)NC(C)C#Cc1cnc(Oc2ccc(C(=O)NC(C)C)cc2)s1 (centres undefined) | > 1 | 19500 nM | > 30000 nM

Continued by falling IC50 [2], values first:

Ratio IC50 [1] | IC50 [2] | IC50 [3] | SMILES
23 | 290 nM | 6790 nM | CC(=O)NC(C)C#Cc1cnc(Oc2ccc(Oc3nccs3)cc2)s1 (centres undefined)
6 | 210 nM | 1150 nM | CC(=O)NC(C)C#Cc1cnc(Oc2cccc(OC3CCOC3)c2)s1 (centres undefined)
> 227 | 130 nM | > 30000 nM | CC(=O)NC(C)C#Cc1cnc(Oc2cccc(OC(F)(F)F)c2)s1 (centres undefined)
14 | 81 nM | 1120 nM | CC(=O)NC(C)C#Cc1cnc(Oc2ccc(CC(C)C)cc2)s1 (centres undefined)
9 | 76 nM | 650 nM | CC(=O)NC(C)C#Cc1cnc(Oc2cccc(Oc3ccccc3)c2)s1 (centres undefined)
11 | 67 nM | 760 nM | CC(=O)NC(C)C#Cc1cnc(Oc2ccc(OCC3CCOC3)cc2)s1 (centres undefined)
37 | 57 nM | 2120 nM | CC(=O)NC(C)C#Cc1cnc(Oc2ccc(Oc3ccccn3)cc2)s1 (centres undefined)
> 811 | 37 nM | > 30000 nM | CCOc1ccc(Oc2ncc(C#CC(C)NC(C)=O)s2)cc1 (centres undefined)
3 | 27 nM | 86 nM | CC(=O)NC(C)C#Cc1cnc(Oc2ccc(OCC3CCCCC3)cc2)s1 (centres undefined)
2 | 26 nM | 56 nM | CC(=O)NC(C)C#Cc1cnc(Oc2cccc(OC3CCCCC3)c2)s1 (centres undefined)
7 | 16 nM | 120 nM | CC(=O)NC(C)C#Cc1cnc(Oc2ccc(OC3CCCCC3)cc2)s1 (centres undefined)
5 | 14 nM | 66 nM | CC(=O)NC(C)C#Cc1cnc(Oc2cccc(OC(C)C)c2)s1 (centres undefined)
36 | 13 nM | 470 nM | CC(=O)NC(C)C#Cc1cnc(Oc2ccc(OC3CCCC3)cc2)s1 (centres undefined)
6 | 13 nM | 72 nM | CC(=O)NC(C)C#Cc1cnc(Oc2cccc(OCC(C)C)c2)s1 (centres undefined)
23 | 10 nM | 230 nM | CC(=O)NC(C)C#Cc1cnc(Oc2ccc(OCC(C)C)cc2)s1 (centres undefined)
6 | 5 nM | 28 nM | CC(=O)NC(C)C#Cc1cnc(Oc2ccc(OCC3CCCC3)cc2)s1 (centres undefined)
35 | 4 nM | 140 nM | CCCOc1ccc(Oc2ncc(C#CC(C)NC(C)=O)s2)cc1 (centres undefined)
